Data published in PMC4494771, “Synthesis, structure, and biological activity of novel heterocyclic sulfonyl-carboximidamides” (Monatshefte Fur Chemie, 2013).

Experiments:
leukemia cell lines = assay: NCI-60 DTP human tumor cell line screening, leukemia panel; type: cell-based; conditions: mean for leukemia cell line panel, read-out: GI 50 mean value
CCRF-CEM = assay: NCI-60 DTP human tumor cell line screening; type: cell-based; conditions: Leukemia CCRF-CEM
HL-60 (TB) = assay: NCI-60 DTP human tumor cell line screening; type: cell-based
MOLT-4 = assay: NCI-60 DTP human tumor cell line screening; type: cell-based; conditions: Leukemia MOLT-4
RPMI-8226 = assay: NCI-60 DTP human tumor cell line screening; type: cell-based; conditions: Leukemia RPMI-8226
SR = assay: NCI-60 DTP human tumor cell line screening; type: cell-based; conditions: Leukemia SR
A549/ATCC = assay: NCI-60 DTP human tumor cell line screening; type: cell-based; conditions: Non-small cell lung cancer A549/ATCC
NCI-H23 = assay: NCI-60 DTP human tumor cell line screening; type: cell-based; conditions: Non-small cell lung cancer NCI-H23
NCI-H522 = assay: NCI-60 DTP human tumor cell line screening; type: cell-based; conditions: Non-small cell lung cancer NCI-H522
COLO 205 = assay: NCI-60 DTP human tumor cell line screening; type: cell-based; conditions: Colon cancer COLO 205
HCC-2998 = assay: NCI-60 DTP human tumor cell line screening; type: cell-based; conditions: Colon cancer HCC-2998
HCT-15 = assay: NCI-60 DTP human tumor cell line screening; type: cell-based; conditions: Colon cancer HCT-15
HT29 = assay: NCI-60 DTP human tumor cell line screening; type: cell-based
KM12 = assay: NCI-60 DTP human tumor cell line screening; type: cell-based
SW-620 = assay: NCI-60 DTP human tumor cell line screening; type: cell-based
LOX IMVI = assay: NCI-60 DTP human tumor cell line screening; type: cell-based; conditions: Melanoma LOX IMVI
MALME-3M = assay: NCI-60 DTP human tumor cell line screening; type: cell-based; conditions: Melanoma MALME-3M
M-14 = assay: NCI-60 DTP human tumor cell line screening; type: cell-based; conditions: Melanoma M-14
UACC-257 = assay: NCI-60 DTP human tumor cell line screening; type: cell-based; conditions: Melanoma UACC-257
IGROV1 = assay: NCI-60 DTP human tumor cell line screening; type: cell-based; conditions: Ovarian cancer IGROV1
OVCAR-3 = assay: NCI-60 DTP human tumor cell line screening; type: cell-based; conditions: Ovarian cancer OVCAR-3
OVCAR-4 = assay: NCI-60 DTP human tumor cell line screening; type: cell-based; conditions: Ovarian cancer OVCAR-4
OVCAR-8 = assay: NCI-60 DTP human tumor cell line screening; type: cell-based; conditions: Ovarian cancer OVCAR-8
A498 = assay: NCI-60 DTP human tumor cell line screening; type: cell-based; conditions: Renal cancer A498
ACHN = assay: NCI-60 DTP human tumor cell line screening; type: cell-based; conditions: Renal cancer ACHN
RXF 393 = assay: NCI-60 DTP human tumor cell line screening; type: cell-based; conditions: Renal cancer RXF 393
SN 12C = assay: NCI-60 DTP human tumor cell line screening; type: cell-based; conditions: Renal cancer SN 12C
UO-31 = assay: NCI-60 DTP human tumor cell line screening; type: cell-based; conditions: Renal cancer UO-31
PC-3 = assay: NCI-60 DTP human tumor cell line screening; type: cell-based; conditions: Prostate cancer PC-3
MDA-MB-231/ATCC = assay: NCI-60 DTP human tumor cell line screening; type: cell-based; conditions: Breast cancer MDA-MB-231/ATCC
HS 578T = assay: NCI-60 DTP human tumor cell line screening; type: cell-based; conditions: Breast cancer HS 578T
BT-549 = assay: NCI-60 DTP human tumor cell line screening; type: cell-based; conditions: Breast cancer BT-549
MDA-MB-468 = assay: NCI-60 DTP human tumor cell line screening; type: cell-based
[1] = test system: panel of 60 human tumor cell lines; assay: NCI-60 DTP human tumor cell line screening, whole panel

NC(=NS(=O)(=O)c1ccccc1Cl)c1ccc2ccccc2n1 [Compound 15, N′-(2-Chlorophenylsulfonyl)quinoline-2-carboximidamide]
GI50 (leukemia cell lines): 3.52 µM | GI50 (CCRF-CEM; Homo sapiens): 3.65 µM | TGI (CCRF-CEM): ^c (Determined TGI values were >100 μM) | inhibition at 10 µM (HL-60 (TB); Homo sapiens, HL-60, read-out: Growth inhibition ΔGI): 19.7% | GI50 (HL-60 (TB); Homo sapiens, Leukemia HL-60 (TB)): 2.29 µM | TGI (HL-60 (TB); Leukemia HL-60 (TB)): 8.41 µM | GI50 (MOLT-4; Homo sapiens): 5.91 µM | TGI (MOLT-4): ^c (Determined TGI values were >100 μM) | GI50 (RPMI-8226; Homo sapiens): 5.27 µM | TGI (RPMI-8226): ^c (Determined TGI values were >100 μM) | GI50 (SR; Homo sapiens): 0.92 µM | TGI (SR): 21.40 µM | GI50 (A549/ATCC; Homo sapiens): 5.37 µM | TGI (A549/ATCC): ^c (Determined TGI values were >100 μM) | GI50 (NCI-H23; Homo sapiens): 5.44 µM | TGI (NCI-H23): ^c (Determined TGI values were >100 μM) | GI50 (NCI-H522; Homo sapiens): 2.28 µM | TGI (NCI-H522): 7.62 µM | TGI (COLO 205): 16.00 µM | GI50 (COLO 205; Homo sapiens): 3.68 µM | TGI (HCC-2998): 59.40 µM | GI50 (HCC-2998; Homo sapiens): 9.63 µM | TGI (HCT-15): ^c (Determined TGI values were >100 μM) | GI50 (HCT-15; Homo sapiens): 4.23 µM | TGI (HT29; Colon cancer HT29): 14.90 µM | inhibition at 10 µM (HT29; Homo sapiens, HT-29, read-out: Growth inhibition ΔGI): 60.4% | GI50 (HT29; Homo sapiens, HT-29, Colon cancer HT29): 3.4 µM | TGI (KM12; Colon cancer KM12): ^c (Determined TGI values were >100 μM) | inhibition at 10 µM (KM12; Homo sapiens, KM12, read-out: Growth inhibition ΔGI): 23% | GI50 (KM12; Homo sapiens, Colon cancer KM12): 3.29 µM | TGI (SW-620; Colon cancer SW-620): ^c (Determined TGI values were >100 μM) | inhibition at 10 µM (SW-620; Homo sapiens, SW-620, read-out: Growth inhibition ΔGI): 24.7% | GI50 (SW-620; Homo sapiens, Colon cancer SW-620): 3.45 µM | GI50 (LOX IMVI; Homo sapiens): 4.05 µM | TGI (LOX IMVI): ^c (Determined TGI values were >100 μM) | GI50 (MALME-3M; Homo sapiens): 5.42 µM | TGI (MALME-3M): ^c (Determined TGI values were >100 μM) | GI50 (M-14; Homo sapiens, M14): 3.61 µM | TGI (M-14): ^c (Determined TGI values were >100 μM) | GI50 (UACC-257; Homo sapiens): 11.7 µM | TGI (UACC-257): ^c (Determined TGI values were >100 μM) | GI50 (IGROV1; Homo sapiens, IGROV-1): 9.42 µM | TGI (IGROV1): ^c (Determined TGI values were >100 μM) | GI50 (OVCAR-3): 9.27 µM | GI50 (OVCAR-4; Homo sapiens): 9.15 µM | TGI (OVCAR-4): 9.53 µM | GI50 (OVCAR-8; Homo sapiens): 5.74 µM | TGI (OVCAR-8): 12.00 µM | GI50 (A498; Homo sapiens): 8.08 µM | TGI (A498): ^c (Determined TGI values were >100 μM) | GI50 (ACHN; Homo sapiens): 7.19 µM | TGI (ACHN): 13.10 µM | GI50 (RXF 393; Homo sapiens): 4.02 µM | TGI (RXF 393): 35.90 µM | GI50 (SN 12C; Homo sapiens, SN12C): 7.67 µM | TGI (SN 12C): ^c (Determined TGI values were >100 μM) | GI50 (UO-31; Homo sapiens): 7.26 µM | TGI (UO-31): 48.50 µM | GI50 (PC-3; Homo sapiens): 9.59 µM | TGI (PC-3): ^c (Determined TGI values were >100 μM) | TGI (MDA-MB-231/ATCC): ^c (Determined TGI values were >100 μM) | GI50 (MDA-MB-231/ATCC; Homo sapiens): 13 µM | TGI (HS 578T): ^c (Determined TGI values were >100 μM) | GI50 (HS 578T; Homo sapiens): 8.98 µM | TGI (BT-549): 56.00 µM | GI50 (BT-549; Homo sapiens): 5.08 µM | TGI (MDA-MB-468; Breast cancer MDA-MB-468): 6.19 µM | inhibition at 10 µM (MDA-MB-468; Homo sapiens, MDA-MB-468, read-out: Growth inhibition ΔGI): 42.2% | GI50 (MDA-MB-468; Homo sapiens, Breast cancer MDA-MB-468): 2.01 µM | Growth percent mean values (MG_MID) ([1]; 10 μM, mean of growth percent for all tested cell lines): 53.4% | GI50 ([1]; Homo sapiens): 0.92 to 13 µM | CC50 ([1]; Homo sapiens, SK-MEL-5, read-out: LC 50): > 100 µM
